Assay results from PMC12881681 (Molecular Pharmacology, 2025).

Experiments:
Type in all cases: biochemical
Set-up in all cases: Enzymatic reaction was initiated by adding human liver cytosol (100 μg); tissue Corning, Inc. (Gentest brand) 452115; host or cells: human liver cytosol, pool of 150 donors
[1] = molecular target: T1, human liver cytosolic AOX1 (Homo sapiens, UniProt Q06278); test: Partition ratio determination (titration, human liver cytosol); settings: for turnover number and partition ratio, fold greater than erlotinib / partition ratio, fold greater than erlotinib: Table 1 values; for Turnover Number: human liver cytosol; for Partition Ratio: turnover number minus 1
T1 sequence (Q06278 1-1338): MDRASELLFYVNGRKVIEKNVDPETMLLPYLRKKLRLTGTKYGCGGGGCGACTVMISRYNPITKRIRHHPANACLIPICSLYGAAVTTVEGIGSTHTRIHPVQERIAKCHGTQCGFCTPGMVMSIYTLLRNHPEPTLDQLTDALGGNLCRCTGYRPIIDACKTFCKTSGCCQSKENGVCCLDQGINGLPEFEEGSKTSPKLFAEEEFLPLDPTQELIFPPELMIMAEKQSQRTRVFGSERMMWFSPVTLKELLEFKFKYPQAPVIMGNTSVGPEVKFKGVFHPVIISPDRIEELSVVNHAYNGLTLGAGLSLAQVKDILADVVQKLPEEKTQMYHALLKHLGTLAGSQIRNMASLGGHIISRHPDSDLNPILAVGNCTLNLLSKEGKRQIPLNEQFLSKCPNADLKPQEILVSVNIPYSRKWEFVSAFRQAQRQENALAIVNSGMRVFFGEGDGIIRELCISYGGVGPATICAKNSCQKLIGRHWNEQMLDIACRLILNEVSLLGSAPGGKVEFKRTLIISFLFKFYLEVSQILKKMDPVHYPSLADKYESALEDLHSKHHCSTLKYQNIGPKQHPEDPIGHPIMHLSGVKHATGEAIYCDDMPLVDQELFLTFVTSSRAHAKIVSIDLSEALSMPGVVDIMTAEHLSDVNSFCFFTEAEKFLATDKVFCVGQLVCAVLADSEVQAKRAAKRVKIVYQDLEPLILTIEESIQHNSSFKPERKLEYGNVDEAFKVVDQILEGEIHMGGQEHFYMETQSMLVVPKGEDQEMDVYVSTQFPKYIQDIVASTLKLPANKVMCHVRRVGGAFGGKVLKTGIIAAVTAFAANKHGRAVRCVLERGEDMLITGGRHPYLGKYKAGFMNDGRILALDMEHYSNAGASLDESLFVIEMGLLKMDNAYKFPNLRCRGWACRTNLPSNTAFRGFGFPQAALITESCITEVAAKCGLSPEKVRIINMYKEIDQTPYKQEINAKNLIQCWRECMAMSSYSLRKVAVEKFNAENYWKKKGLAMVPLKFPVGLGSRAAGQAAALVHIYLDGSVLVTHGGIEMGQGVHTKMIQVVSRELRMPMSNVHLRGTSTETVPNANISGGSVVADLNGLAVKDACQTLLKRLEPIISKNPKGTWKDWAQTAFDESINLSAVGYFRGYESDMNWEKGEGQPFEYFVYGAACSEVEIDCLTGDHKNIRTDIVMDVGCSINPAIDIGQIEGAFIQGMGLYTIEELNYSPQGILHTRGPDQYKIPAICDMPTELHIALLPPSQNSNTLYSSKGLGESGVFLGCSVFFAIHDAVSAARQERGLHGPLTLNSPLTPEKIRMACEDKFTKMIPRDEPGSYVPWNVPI
Method: The enzyme kinetic experiments were conducted as described above. The incubation was allowed to proceed until saturation of enzyme has been reached (6 or 18 minutes, as specified in each figure legend). Carbazeran 4-oxidation was plotted against the ratio of inactivator concentration to AOX1 protein concentration in the incubation mixture of 200 μL. The specific lot of human liver cytosol (#38292) used in this study contained 1.05 ± 0.01 pmol/μL (mean ± SD) of AOX1 protein, as assessed by capillary nanoproteomic immunoassay.[27] The turnover number was the extrapolation of the intercept of the 2 linear regression lines to the x-axis, which was determined by solving the 2 linear regression equations. The partition ratio was calculated by subtracting the turnover number by 1, assuming 1:1 stoichiometry between the inactivator and the enzyme.[29]

[2] = molecular target: T1, human liver cytosolic AOX1; test: Effects of a competing AOX1 substrate and a competitive AOX1 inhibitor on AOX1 inactivation; settings: human liver cytosol; for effect of O^6-benzylguanine on extent of AOX1 inactivation: O^6-benzylguanine 120, 240 (480) μM; for effect of O^6-benzylguanine on extent of AOX1 inactivation / effect of gefitinib on extent of AOX1 inactivation: carbazeran 4-oxidation; for effect of gefitinib on extent of AOX1 inactivation: gefitinib 3, 10, 30 μM
Method: The molar ratio of O^6-benzylguanine (120, 240, and 480 μM) to 3-vinylerlotinib (10 μM) was 12, 24, and 48, O^6-benzylguanine to 4′-methylerlotinib (3 μM) was 40, 80, and 160, and O^6-benzylguanine to 2-methylerlotinib (1 μM) was 120, 240, and 480, respectively. […] Each standard incubation mixture was subjected to the same procedures as described in Enzyme Inactivation Experiments. The residual AOX1 enzyme activity was determined by the carbazeran 4-oxidation or O^6-benzylguanine 8-oxidation assay.

[3] = molecular target: T1, human liver cytosolic AOX1; settings: potassium ferricyanide 2 mM, 0 or 6 min preincubation
Method: The residual AOX1 enzyme activity was determined by the carbazeran 4-oxidation assay.
A test chemical at a concentration described above was incubated with human liver cytosol (100 μg protein) at 37 °C for 0 or 6 minutes. […] After 10-minute incubation, an aliquot (50 μL) of the […] (total volume of 200 μL) containing potassium phosphate buffer and carbazeran (15 μM), which yielded a 4-fold dilution of the secondary incubation mixture. The residual AOX1 enzyme activity was determined as described above.

[4] = molecular target: T1, human liver cytosolic AOX1; test: Effects of nucleophilic trapping agents and scavengers of reactive oxygen species on AOX1 inactivation; settings: inactivator 1.5 μM; for effect of catalase and superoxide dismutase on AOX1 inactivation: catalase 1000 and 2000 U, superoxide dismutase 500 and 1000 U; for effect of glutathione and N-acetylcysteine on AOX1 inactivation: glutathione or N-acetylcysteine 5 and 10 mM, 6 min
Method: The control incubations were described in our previous publication.[28] Each standard incubation mixture was subjected to the same procedures as described in Enzyme Inactivation Experiments. The residual AOX1 enzyme activity was determined by the carbazeran 4-oxidation assay.

Row | SMILES | turnover number and partition ratio, fold greater than erlotinib [1] | Turnover Number [1] | Partition Ratio [1] | effect of O^6-benzylguanine on extent of AOX1 inactivation [2] | effect of gefitinib on extent of AOX1 inactivation [2] | effect of coincubation or postincubation with potassium ferricyanide on AOX1 inactivation [3] | partition ratio, fold greater than erlotinib [1] | Turnover Number ([1]; listed as 3-vinylerlotinib) | Partition Ratio ([1]; listed as 3-vinylerlotinib) | effect of catalase and superoxide dismutase on AOX1 inactivation [4] | effect of glutathione and N-acetylcysteine on AOX1 inactivation [4] | decrease in carbazeran 4-oxidation in the presence of gefitinib ([2]; inactivator 1.5 μM + 3 μM gefitinib) | decrease in carbazeran 4-oxidation in the presence of gefitinib ([2]; inactivator 1.5 μM + 10 μM gefitinib) | decrease in carbazeran 4-oxidation in the presence of gefitinib ([2]; inactivator 1.5 μM + 30 μM gefitinib)
1 | C#Cc1cc(Nc2ncnc3cc(OCCOC)c(OCCOC)cc23)ccc1C [4′-Methylerlotinib, 4′-methylerlotinib] | 1.6 fold | 42.9 ± 4.32 | 41.9 ± 4.32 | attenuated | attenuated | not increased or decreased |  |  |  |  |  |  |  | 
2 | C#Cc1cccc(Nc2nc(C)nc3cc(OCCOC)c(OCCOC)cc23)c1 [2-Methylerlotinib, 2-methylerlotinib] |  | 49.9 ± 1.40 | 48.9 ± 1.40 | attenuated | attenuated | not increased or decreased | 1.9 fold |  |  |  |  |  |  | 
3 | C=Cc1cccc(Nc2ncnc3cc(OCCOC)c(OCCOC)cc23)c1 [3-Vinylerlotinib, 3-vinylerlotinib] | 10 fold | 271 ± 23.5∗∗∗ | 270 ± 23.5∗∗∗ | attenuated | attenuated | not increased or decreased | 10 fold | 271 | 270 |  |  |  |  | 
4 | C#Cc1cccc(Nc2ncnc3cc(OCCOC)c(OCCO)cc23)c1 [O-Desmethylerlotinib, O-desmethylerlotinib] |  | 35.2 ± 4.78 | 34.2 ± 4.78 | attenuated | attenuated | not increased or decreased |  |  |  | did not protect | did not reduce the inactivation |  |  | 
5 | C#Cc1cccc(Nc2ncnc3cc(OCCOC)c(OCCOC)cc23)c1 [Erlotinib] |  | 26.9 ± 1.30 |  | attenuated |  | not increased or decreased |  |  |  | did not protect | did not reduce the inactivation | 73% | 55% | 47%
6 | C#Cc1cccc(Nc2ncnc3cc(OCCO)c(OCCO)cc23)c1 [O-Didesmethylerlotinib, O-didesmethylerlotinib] |  | 24.6 ± 1.29 | 23.6 ± 1.29 | attenuated | attenuated | not increased or decreased |  |  |  | did not protect | did not reduce the inactivation |  |  | 
